Data from US20060142180A1, “Cholinergic modulation of microglial activation via alpha-7 nicotinic receptors” (priority 2003, published 2006).
Where two headings read alike, the source gives them in different places.

Assays:
[1] = tested on: LPS-induced TNF-α release in primary cultured microglial cells; experiment: LPS-induced TNF-α release from primary cultured microglial cells (ELISA); assay type: cell-based, mouse
Procedure: Murine primary culture microglial cells were isolated from mouse cerebral cortices (C57BL/6 mice) and cultured as previously described (Tan et al. 2000b). To investigate whether α7 nAChR subunits are expressed in microglial cells, we first isolated total RNA from N9 microglial cell line and primary cultured microglial cells for RT-PCR analysis.
To determine whether ACh or nicotine could inhibit LPS-induced TNF-α production in these microglial cells, the inventors pre-incubated microglial cells with ACh or nicotine for 30 minutes and challenged these cells with LPS for 4 hours. […] Primary cultured microglial cells pretreated with ACh (FIG. 3B) or nicotine […] at a range of dose as indicated for 30 minutes and challenged with LPS (100 ng/mL) for 4 hours. Microglial TNF-α release was measured by ELISA.

α7 nAChR subunit = α7 nAChR subunit (Mus musculus, UniProt P49582)
Sequence of α7 nAChR subunit (P49582 23-502): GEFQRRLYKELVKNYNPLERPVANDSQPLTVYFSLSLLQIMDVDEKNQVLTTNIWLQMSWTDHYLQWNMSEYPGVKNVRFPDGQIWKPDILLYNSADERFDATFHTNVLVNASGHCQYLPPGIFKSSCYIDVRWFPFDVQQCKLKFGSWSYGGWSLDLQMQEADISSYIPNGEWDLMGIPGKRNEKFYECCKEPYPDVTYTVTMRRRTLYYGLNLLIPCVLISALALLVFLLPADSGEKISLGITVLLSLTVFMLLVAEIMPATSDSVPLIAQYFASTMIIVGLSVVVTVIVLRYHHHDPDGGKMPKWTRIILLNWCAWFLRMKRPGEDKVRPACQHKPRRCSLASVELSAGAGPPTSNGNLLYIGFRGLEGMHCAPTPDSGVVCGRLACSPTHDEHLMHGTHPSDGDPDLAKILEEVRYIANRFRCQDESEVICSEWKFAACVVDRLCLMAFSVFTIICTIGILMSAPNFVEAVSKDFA

Compound: CN1CCCC1c1cccnc1 (stereo not drawn) [nicotine]
- dose dependence of inhibition of microglial LPS-induced TNF-α production [1]: dose-dependently inhibits
- LPS-induced TNF-α release ([1]; pre-stimulated 30 minutes at 5 μM, then LPS 100 ng/mL for 4 hours, p<0.01 vs LPS (FIG. 3A)): marked reduction
- fluorescent intensity of FITC-labeled α-bungarotoxin binding (α7 nAChR subunit): marked reduction

Compound: α-bungarotoxin
- TNF-α release, antagonist plus LPS versus LPS alone [1]: no significances

Compound: CNC1(C)C2CCC(C2)C1(C)C (stereo not drawn) [mecamylamine]
- effect of nACh antagonist on ACh or nicotine-mediated inhibition of microglial TNF-α production [1]: significantly recovers
- TNF-α release, antagonist plus LPS versus LPS alone ([1]; antagonist without agonist, […], LPS 100 ng/mL 4 hours, p>0.05): no significances
